Laboratory results as given in ChEMBL document CHEMBL1201862, “PubChem BioAssay data set” (2004).
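Test compounds were applied to cells in 96-well plates for 48 hours at 5 doses. Here, GI50 denotes the concentration required for 50% inhibition of growth.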 Activity calls are given as the source filed them. Rule as the data show it: active = GI50 up to about 1.1 µM and inactive = higher.

Experiments:
Test in all cases: NCI anticancer screen, dose series, 48 h
EKVX = tested on: EKVX
HCT-15 = tested on: HCT-15
SK-OV-3 = tested on: SK-OV-3
NCI-H226 = tested on: NCI-H226
HOP-92 = tested on: HOP-92
Hs-578T = tested on: Hs-578T
ACHN = tested on: ACHN
HOP-62 = tested on: HOP-62
NCI/ADR-RES = tested on: NCI/ADR-RES
COLO 205 = tested on: COLO 205
786-0 = tested on: 786-0
NCI-H460 = tested on: NCI-H460
A549 = tested on: A549
HCC 2998 = tested on: HCC 2998
SF-268 = tested on: SF-268
U-251 = tested on: U-251
TK-10 = tested on: TK-10
MDA-MB-435 = tested on: MDA-MB-435
SK-MEL-2 = tested on: SK-MEL-2
DU-145 = tested on: DU-145
OVCAR-5 = tested on: OVCAR-5
MOLT-4 = tested on: MOLT-4
CCRF-CEM = tested on: CCRF-CEM
BT-549 = tested on: BT-549
NCI-H522 = tested on: NCI-H522
RXF 393 = tested on: RXF 393
SNB-75 = tested on: SNB-75
T47D = tested on: T47D
SK-MEL-28 = tested on: SK-MEL-28
UACC-62 = tested on: UACC-62
HL-60 = tested on: HL-60
K562 = tested on: K562
OVCAR-3 = tested on: OVCAR-3
SK-MEL-5 = tested on: SK-MEL-5
Malme-3M = tested on: Malme-3M
IGROV-1 = tested on: IGROV-1
A498 = tested on: A498
UO-31 = tested on: UO-31
CAKI-1 = tested on: CAKI-1
OVCAR-8 = tested on: OVCAR-8
PC-3 = tested on: PC-3
KM12 = tested on: KM12
SF-295 = tested on: SF-295
NCI-H23 = tested on: NCI-H23
SR = tested on: SR
SW-620 = tested on: SW-620
SNB-19 = tested on: SNB-19
M14 = tested on: M14
HCT-116 = tested on: HCT-116
LOX IMVI = tested on: LOX IMVI
MDA-MB-231 = tested on: MDA-MB-231
RPMI-8226 = tested on: RPMI-8226
UACC-257 = tested on: UACC-257
HT-29 = tested on: HT-29
OVCAR-4 = tested on: OVCAR-4
SF-539 = tested on: SF-539
MCF7 = tested on: MCF7
SN12C = tested on: SN12C

Measured: GI50

O=C1CNc2cc(N3CCN(c4ccccc4)CC3)ccc2N1
> 100 µM: HCT-15
inactive: EKVX 34.1 µM | SK-OV-3 > 100 µM | NCI-H226 > 100 µM | HOP-92 > 100 µM | Hs-578T > 100 µM | ACHN > 100 µM | HOP-62 > 100 µM | NCI/ADR-RES > 100 µM | COLO 205 > 100 µM | 786-0 > 100 µM | NCI-H460 > 100 µM | A549 > 100 µM | HCC 2998 > 100 µM | SF-268 > 100 µM | U-251 > 100 µM | TK-10 > 100 µM | MDA-MB-435 > 100 µM | SK-MEL-2 > 100 µM | DU-145 > 100 µM | OVCAR-5 > 100 µM | MOLT-4 > 100 µM | CCRF-CEM > 100 µM | BT-549 > 100 µM | NCI-H522 > 100 µM | RXF 393 > 100 µM | SNB-75 > 100 µM | T47D > 100 µM | SK-MEL-28 > 100 µM | UACC-62 > 100 µM | HL-60 > 100 µM | K562 > 100 µM | OVCAR-3 > 100 µM | SK-MEL-5 > 100 µM | Malme-3M > 100 µM | IGROV-1 > 100 µM | A498 > 100 µM | UO-31 > 100 µM | CAKI-1 > 100 µM | OVCAR-8 > 100 µM | PC-3 > 100 µM | KM12 > 100 µM | SF-295 > 100 µM | NCI-H23 > 100 µM | SR > 100 µM | SW-620 > 100 µM | SNB-19 > 100 µM | M14 > 100 µM | HCT-116 > 100 µM | LOX IMVI > 100 µM | MDA-MB-231 > 100 µM | RPMI-8226 > 100 µM | UACC-257 > 100 µM | HT-29 > 100 µM | OVCAR-4 > 100 µM

Cn1c(=O)c2nc(/N=N/Nc3nncs3)[nH]c2n(C)c1=O
inactive: EKVX > 100 µM | SK-OV-3 > 100 µM | HOP-92 > 100 µM | Hs-578T > 100 µM | ACHN > 100 µM | HOP-62 > 100 µM | NCI/ADR-RES > 100 µM | COLO 205 > 100 µM | 786-0 > 100 µM | NCI-H460 > 100 µM | A549 > 100 µM | SF-539 > 100 µM | HCC 2998 > 100 µM | SF-268 > 100 µM | U-251 > 100 µM | TK-10 > 100 µM | MDA-MB-435 > 100 µM | SK-MEL-2 > 100 µM | DU-145 > 100 µM | OVCAR-5 > 100 µM | MOLT-4 > 100 µM | CCRF-CEM > 100 µM | BT-549 > 100 µM | RXF 393 > 100 µM | T47D > 100 µM | SK-MEL-28 > 100 µM | UACC-62 > 100 µM | K562 > 100 µM | OVCAR-3 > 100 µM | SK-MEL-5 > 100 µM | MCF7 > 100 µM | IGROV-1 > 100 µM | A498 > 100 µM | UO-31 > 100 µM | CAKI-1 > 100 µM | OVCAR-8 > 100 µM | SN12C > 100 µM | PC-3 > 100 µM | KM12 > 100 µM | SF-295 > 100 µM | NCI-H23 > 100 µM | SW-620 > 100 µM | SNB-19 > 100 µM | M14 > 100 µM | HCT-116 > 100 µM | LOX IMVI > 100 µM | MDA-MB-231 > 100 µM | UACC-257 > 100 µM | HT-29 > 100 µM | OVCAR-4 > 100 µM
> 100 µM: HCT-15

N[C@H](C(=O)O)[C@@H]1CC(Br)=NO1
54.1 µM: HCT-15
inactive: EKVX 73.3 µM | SK-OV-3 69.5 µM | NCI-H226 > 100 µM | HOP-92 > 100 µM | Hs-578T > 100 µM | ACHN 73.5 µM | HOP-62 61.9 µM | NCI/ADR-RES > 100 µM | COLO 205 71.3 µM | 786-0 99.8 µM | NCI-H460 42.2 µM | A549 87.5 µM | SF-539 97.7 µM | HCC 2998 59.6 µM | SF-268 > 100 µM | U-251 > 100 µM | TK-10 47.1 µM | MDA-MB-435 95.3 µM | SK-MEL-2 > 100 µM | DU-145 > 100 µM | OVCAR-5 61.4 µM | MOLT-4 59.3 µM | BT-549 88.9 µM | NCI-H522 77.4 µM | RXF 393 > 100 µM | SNB-75 62.4 µM | T47D > 100 µM | UACC-62 85.5 µM | HL-60 > 100 µM | OVCAR-3 > 100 µM | SK-MEL-5 54.5 µM | Malme-3M > 100 µM | MCF7 41.5 µM | A498 > 100 µM | UO-31 > 100 µM | CAKI-1 90.2 µM | OVCAR-8 85.5 µM | PC-3 > 100 µM | KM12 75.2 µM | SF-295 73.6 µM | NCI-H23 > 100 µM | SR 44.1 µM | SW-620 48.6 µM | SNB-19 > 100 µM | M14 53.5 µM | HCT-116 52.4 µM | MDA-MB-231 > 100 µM | UACC-257 > 100 µM | HT-29 57.5 µM | OVCAR-4 > 100 µM
